Measurements published in patent US8592367B2, “Nodule specific medicago peptides having antimicrobial activity and pharmaceutical compositions containing the same” (priority 2009, dated 2013).
“Also recorded” adds a separate entry of the source. Like-named read-outs stand apart in the source and are kept apart here.

Assays:
Aspergillus flavus = experiment: Antifungal activity in 96-well microtiter plates; type: cell-based; design: key: +++: high sensitivity, no hyphal growth; ++: medium sensitivity; +: low sensitivity; −: no effect; settings: 24 h
Aspergillus niger = experiment: Antifungal activity in 96-well microtiter plates; type: cell-based; design: key: +++: high sensitivity, no hyphal growth; ++: medium sensitivity; +: low sensitivity; −: no effect; settings: 24 h
Candida albicans = experiment: Antifungal activity in 96-well microtiter plates; type: cell-based; design: key: +++: high sensitivity, no hyphal growth; ++: medium sensitivity; +: low sensitivity; −: no effect; settings: 24 h
Candida crusei = experiment: Antifungal activity in 96-well microtiter plates; type: cell-based; design: key: +++: high sensitivity, no hyphal growth; ++: medium sensitivity; +: low sensitivity; −: no effect; settings: 24 h
Candida parapsilosis = experiment: Antifungal activity in 96-well microtiter plates; type: cell-based; design: key: +++: high sensitivity, no hyphal growth; ++: medium sensitivity; +: low sensitivity; −: no effect; settings: 24 h
[1] = test system: Rhizopus stolonifer var. stolonifer; experiment: Antifungal activity in 96-well microtiter plates; type: cell-based; design: key: +++: high sensitivity, no hyphal growth; ++: medium sensitivity; +: low sensitivity; −: no effect; settings: 24 h
Fusarium graminearum = type: cell-based; design: key: +++: high sensitivity, no hyphal growth; ++: medium sensitivity; +: low sensitivity; −: no effect; settings: 24 h
[2] = test system: Pseudomonas syringae pv tomato DC3000; experiment: PI staining, broad spectrum activity; type: cell-based; settings: 50 μg/ml
[3] = test system: Pseudomonas syringae pv tomato DC3000; experiment: CFU determination, broad spectrum activity; type: cell-based; settings: 50 μg/ml, Pseudomonas syringae pv tomato DC3000, untreated 10^7
Xanthomonas 2880 [4] = experiment: PI staining, broad spectrum activity; type: cell-based; settings: 50 μg/ml
Xanthomonas 2880 [5] = experiment: CFU determination, broad spectrum activity; type: cell-based; settings: 50 μg/ml, Xanthomonas 2880, untreated 10^7
Clavibacter michigense [6] = experiment: PI staining, broad spectrum activity; type: cell-based; settings: 50 μg/ml
Clavibacter michigense [7] = experiment: CFU determination, broad spectrum activity; type: cell-based; settings: 50 μg/ml, untreated 10^9
[8] = test system: Curtobacterium, flaccumfaciens; experiment: PI staining, broad spectrum activity; type: cell-based; settings: 50 μg/ml
[9] = test system: Curtobacterium, flaccumfaciens; experiment: CFU determination, broad spectrum activity; type: cell-based; settings: 50 μg/ml, untreated 10^9
Bacillus subtilis [10] = experiment: PI staining, broad spectrum activity; type: cell-based; settings: 50 μg/ml
Bacillus subtilis [11] = experiment: CFU determination, broad spectrum activity; type: cell-based; settings: 50 μg/ml, untreated 10^6
Staphylococcus aureus [12] = experiment: PI staining, broad spectrum activity; type: cell-based; settings: 50 μg/ml
Staphylococcus aureus [13] = experiment: CFU determination, broad spectrum activity; type: cell-based; settings: 50 μg/ml, untreated 10^6
[14] = test system: Sinorhizobium meliloti AK631; experiment: PI staining of Sinorhizobium meliloti; settings: 50 μg/ml; for PI staining (PI uptake): FIG. 2A; for PI: Sinorhizobium meliloti (AK631)
[15] = test system: Sinorhizobium meliloti AK631; experiment: CFU determination of Sinorhizobium meliloti; settings: for CFU % / CFU (colony/ml): 1 hr; for CFU determination (colony formation): 3 hours, 2-3×10^6 bacteria, FIG. 2B; for CFU: Sinorhizobium meliloti (AK631), untreated 10^7; for eradication of the bacteria: from the low dose of 20 μg/ml
Pseudomonas aeruginosa [16] = experiment: PI staining, broad spectrum activity; type: cell-based; settings: 50 μg/ml
Pseudomonas aeruginosa [17] = experiment: CFU determination, broad spectrum activity; type: cell-based; settings: 50 μg/ml, Pseudomonas aeruginosa, untreated 10^7

C[C@@H]1[C@H](O)[C@@H](C)/C=C/C=C/C=C/C=C/C=C/C=C/C=C/[C@H](O[C@@H]2O[C@H](C)[C@@H](O)[C@H](N)[C@@H]2O)C[C@@H]2O[C@](O)(C[C@@H](O)C[C@@H](O)[C@H](O)CC[C@@H](O)C[C@@H](O)CC(=O)O[C@H]1C)C[C@H](O)[C@H]2C(=O)O [AMB, Amfotericin B, reference compound]
Fungal (hyphal) growth, sensitivity (Aspergillus flavus; 125 μg/ml): +++
Fungal (hyphal) growth, sensitivity (Aspergillus niger; 125 μg/ml): +++
Fungal (hyphal) growth, sensitivity (Candida albicans; 125 μg/ml): +++
Fungal (hyphal) growth, sensitivity (Candida crusei; 125 μg/ml): +++
Fungal (hyphal) growth, sensitivity (Candida parapsilosis; 125 μg/ml): +++
Fungal (hyphal) growth, sensitivity ([1]; 125 μg/ml): +++
Fungal (hyphal) growth, sensitivity (Fusarium graminearum; 125 μg/ml): ++

NCR035: cationic NCR peptide (SFLGTFISSCKRDKDCPKLYGANFRCRKGTCVPPI; Peptide derived from Medicago truncatula)
PI [2]: PI: 100%
CFU [3]: CFU: 10^7
PI (Xanthomonas 2880 [4]): PI: 100%
CFU (Xanthomonas 2880 [5]): CFU: 10^2
PI (Clavibacter michigense [6]): PI: 110%
CFU (Clavibacter michigense [7]): CFU: 10^4
PI [8]: PI: 78%
CFU [9]: CFU: 10^5
PI (Bacillus subtilis [10]): PI: 100%
CFU (Bacillus subtilis [11]): CFU: 10^3
PI (Staphylococcus aureus [12]): PI: 100%
CFU (Staphylococcus aureus [13]): CFU: 10^6
Fungal (hyphal) growth, sensitivity (Aspergillus flavus; 25 μg/ml): −
Fungal (hyphal) growth, sensitivity (Aspergillus flavus; 50 μg/ml): +
Fungal (hyphal) growth, sensitivity (Aspergillus flavus; 100 μg/ml): ++
Fungal (hyphal) growth, sensitivity (Aspergillus niger; 25 μg/ml): −
Fungal (hyphal) growth, sensitivity (Aspergillus niger; 50 μg/ml): −
Fungal (hyphal) growth, sensitivity (Aspergillus niger; 100 μg/ml): +
Fungal (hyphal) growth, sensitivity (Candida albicans; 25 μg/ml): +
Fungal (hyphal) growth, sensitivity (Candida albicans; 50 μg/ml): ++
Fungal (hyphal) growth, sensitivity (Candida albicans; 100 μg/ml): ++
Fungal (hyphal) growth, sensitivity (Candida crusei; 25 μg/ml): +
Fungal (hyphal) growth, sensitivity (Candida crusei; 50 μg/ml): ++
Fungal (hyphal) growth, sensitivity (Candida crusei; 100 μg/ml): ++
Fungal (hyphal) growth, sensitivity (Candida parapsilosis; 25 μg/ml): +
Fungal (hyphal) growth, sensitivity (Candida parapsilosis; 50 μg/ml): ++
Fungal (hyphal) growth, sensitivity (Candida parapsilosis; 100 μg/ml): ++
Fungal (hyphal) growth, sensitivity ([1]; 25 μg/ml): −
Fungal (hyphal) growth, sensitivity ([1]; 50 μg/ml): +
Fungal (hyphal) growth, sensitivity ([1]; 100 μg/ml): ++
Fungal (hyphal) growth, sensitivity (Fusarium graminearum; 25 μg/ml): −
Fungal (hyphal) growth, sensitivity (Fusarium graminearum; 50 μg/ml): +
Fungal (hyphal) growth, sensitivity (Fusarium graminearum; 100 μg/ml): ++
PI staining (PI uptake) ([14]; listed as NCR35): provoked PI uptake; also recorded: comparable to heat killed bacteria or bacteria treated with polymyxin B
PI [14]: PI: 90%
CFU % ([15]; 20 μg/ml): 0%
CFU (colony/ml) ([15]; 20 μg/ml): 21000 colony/ml
CFU % ([15]; 50 μg/ml): 0%
CFU (colony/ml) ([15]; 50 μg/ml): 0 colony/ml
CFU determination (colony formation) ([15]; 50 μg/ml): none formed colony
CFU ([15]; 50 μg/ml): CFU: 0
eradication of the bacteria [15]: able to eradicate the bacteria in less than an hour

NCR055: cationic NCR peptide (VNDCIRIHCKDDFDCIENRLQVGCRLQREKPRCVNLVCRCLRR; Peptide derived from Medicago truncatula)
PI (Pseudomonas aeruginosa [16]): PI: 10%
CFU (Pseudomonas aeruginosa [17]): CFU: 10^5
PI [2]: PI: 85%
CFU [3]: CFU: 0
PI (Xanthomonas 2880 [4]): PI: 100%
CFU (Xanthomonas 2880 [5]): CFU: 10^4
PI (Clavibacter michigense [6]): PI: 100%
CFU (Clavibacter michigense [7]): CFU: 0
PI [8]: PI: 80%
CFU [9]: CFU: 0
PI (Bacillus subtilis [10]): PI: 100%
CFU (Bacillus subtilis [11]): CFU: 0
PI (Staphylococcus aureus [12]): PI: 100%
Fungal (hyphal) growth, sensitivity (Aspergillus flavus; 50 μg/ml): +
Fungal (hyphal) growth, sensitivity (Aspergillus flavus; 100 μg/ml): ++
Fungal (hyphal) growth, sensitivity (Aspergillus niger; 50 μg/ml): ++
Fungal (hyphal) growth, sensitivity (Aspergillus niger; 100 μg/ml): ++
Fungal (hyphal) growth, sensitivity (Candida albicans; 50 μg/ml): +++
Fungal (hyphal) growth, sensitivity (Candida albicans; 100 μg/ml): +++
Fungal (hyphal) growth, sensitivity (Candida crusei; 50 μg/ml): +++
Fungal (hyphal) growth, sensitivity (Candida crusei; 100 μg/ml): +++
Fungal (hyphal) growth, sensitivity (Candida parapsilosis; 50 μg/ml): +++
Fungal (hyphal) growth, sensitivity (Candida parapsilosis; 100 μg/ml): +++
Fungal (hyphal) growth, sensitivity ([1]; 50 μg/ml): ++
Fungal (hyphal) growth, sensitivity ([1]; 100 μg/ml): +++
Fungal (hyphal) growth, sensitivity (Fusarium graminearum; 50 μg/ml): −
Fungal (hyphal) growth, sensitivity (Fusarium graminearum; 100 μg/ml): ++
PI staining (PI uptake) ([14]; listed as NCR55): provoked PI uptake; also recorded: comparable to heat killed bacteria or bacteria treated with polymyxin B
PI [14]: PI: 80%
CFU % ([15]; 20 μg/ml): 0%
CFU (colony/ml) ([15]; 20 μg/ml): 1800 colony/ml
CFU % ([15]; 50 μg/ml): 0%
CFU (colony/ml) ([15]; 50 μg/ml): 0 colony/ml
CFU determination (colony formation) ([15]; 50 μg/ml): none formed colony
CFU ([15]; 50 μg/ml): CFU: 0
eradication of the bacteria [15]: able to eradicate the bacteria in less than an hour

NCR057: cationic NCR peptide (RPVSCKDHYDCRRKVKIVGCIFPQEKPMCINSMCTCIREIVP; Peptide derived from Medicago truncatula)
PI [2]: PI: 50%
CFU [3]: CFU: 10^6
PI (Xanthomonas 2880 [4]): PI: 65%
PI (Clavibacter michigense [6]): PI: 70%
PI [8]: PI: 60%
CFU [9]: CFU: 0
CFU (Bacillus subtilis [11]): CFU: 10^6
PI (Staphylococcus aureus [12]): PI: 47%
CFU (Staphylococcus aureus [13]): CFU: 10^6
PI [14]: PI: 35%
CFU % ([15]; 20 μg/ml): 148%
CFU (colony/ml) ([15]; 20 μg/ml): 9800000 colony/ml
CFU % ([15]; 50 μg/ml): 68%
CFU (colony/ml) ([15]; 50 μg/ml): 4500000 colony/ml
CFU determination (colony formation) ([15]; 50 μg/ml): reduced growth capacity
CFU ([15]; 50 μg/ml): CFU: 10^6
eradication of the bacteria [15]: able to eradicate the bacteria in less than an hour

NCR224: anionic NCR peptide (KDLPFNICEKDEDCLEFCAHDKVAKCMLNICFCF; Peptide derived from Medicago truncatula)
CFU % ([15]; 20 μg/ml): 130%
CFU (colony/ml) ([15]; 20 μg/ml): 52900000 colony/ml
CFU % ([15]; 50 μg/ml): 48%
CFU (colony/ml) ([15]; 50 μg/ml): 19600000 colony/ml
CFU determination (colony formation) ([15]; 50 μg/ml): reduced growth capacity
